In publication PMC5733478, “A Non-imaging High Throughput Approach to Chemical Library Screening at the Unmodified Adenosine-A3 Receptor in Living Cells” (Frontiers in Pharmacology, 2017):
Read-outs that look alike come from different tables or passages of the source.

How the values were obtained:
[1] = molecular target: T1, human A3AR (Homo sapiens, UniProt P0DMS8); test: HTS (PHERAstar FS) fluorescent ligand competition binding in live CHO cells, 5 nM AV039 tracer
T1 construct: expressed in transfected cells
T1 sequence (P0DMS8 1-318): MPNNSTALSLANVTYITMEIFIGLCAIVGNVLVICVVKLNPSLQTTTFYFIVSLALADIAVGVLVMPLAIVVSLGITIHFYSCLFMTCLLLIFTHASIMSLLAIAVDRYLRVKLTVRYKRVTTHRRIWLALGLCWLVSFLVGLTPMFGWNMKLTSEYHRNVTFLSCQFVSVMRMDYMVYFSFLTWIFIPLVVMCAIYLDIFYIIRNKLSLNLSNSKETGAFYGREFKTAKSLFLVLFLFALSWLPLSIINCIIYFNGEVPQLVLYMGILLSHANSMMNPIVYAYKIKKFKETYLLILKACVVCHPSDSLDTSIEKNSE
Experimental: (§1) CHO cells stably expressing the A3AR, A1AR, β1AR or β2AR were seeded into the central 60 wells (for high content confocal analysis) or every well (high throughput analysis) of a 96-well clear-bottomed, black-walled plate (Greiner BioOne) and grown to confluency. […] Cells were incubated for 1h at 37°C/5% CO2. Buffer was then removed from each well, cells washed once in HBSS and fresh HBSS added at room temperature. Plates were then immediately subjected to high content or HTS analysis as detailed below.
(§2) High throughput analysis was performed using a PHERAstar FS plate reader (BMG Technologies). […] Optimal focal height was determined automatically and total fluorescence intensity was assessed by taking 81 reads per well.
(§3) Competition binding curves were fitted to the following equation using GraphPad Prism 5 (GraphPad Software): […]
(§4) where [L] is the concentration and KD is the equilibrium dissociation constant of the fluorescent ligand.

[2] = molecular target: T1, human A3AR; test: HTS (PHERAstar FS) fluorescent ligand competition binding in live CHO cells, 25 nM CA200645 tracer
Experimental: as §1, §2, §3, §4

[3] = molecular target: T2, β2AR (Homo sapiens, UniProt P07550); test: HTS (PHERAstar FS) fluorescent ligand competition binding in live CHO cells, 10 nM BODIPY-TMR-CGP tracer; details: for β2AR % Total binding at 10 μM: 10 μM compound, 10 nM BODIPY-TMR-CGP, mean ± SEM, n=3
T2 construct: expressed in transfected cells
Experimental: as §1, §2, §3, §4

[4] = molecular target: T1, human A3AR; test: LOPAC library primary screen: single concentration (10 μM) inhibition of 25 nM CA200645 binding, PHERAstar FS
[5] = molecular target: A3AR; details: ref Stoddart et al. ([2012]); cited from earlier work
[6] = molecular target: A1AR; details: cited from earlier work
[7] = molecular target: T3, human A1AR (Homo sapiens, UniProt P30542); test: HTS (PHERAstar FS) fluorescent ligand competition binding in live CHO cells, 25 nM CA200645 tracer; details: secondary screen of LOPAC hits
T3 construct: expressed in transfected cells
T3 sequence (P30542 1-326): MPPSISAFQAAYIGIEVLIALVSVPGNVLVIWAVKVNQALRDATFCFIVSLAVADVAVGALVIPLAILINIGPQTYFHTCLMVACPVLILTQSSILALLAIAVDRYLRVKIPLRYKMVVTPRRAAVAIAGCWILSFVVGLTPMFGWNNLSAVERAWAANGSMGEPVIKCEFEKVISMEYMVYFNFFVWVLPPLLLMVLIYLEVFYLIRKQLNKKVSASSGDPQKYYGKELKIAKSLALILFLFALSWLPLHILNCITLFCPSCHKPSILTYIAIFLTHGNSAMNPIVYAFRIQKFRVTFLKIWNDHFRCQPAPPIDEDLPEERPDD
Experimental: as §1, §2, §3, §4

[8] = secondary screen of LOPAC hits, full inhibition curves, 25 nM CA200645, mean ± SEM, n=3, read-out: A3AR pKi (selected LOPAC hits) (converted)

T2 sequence (P07550 whole entry): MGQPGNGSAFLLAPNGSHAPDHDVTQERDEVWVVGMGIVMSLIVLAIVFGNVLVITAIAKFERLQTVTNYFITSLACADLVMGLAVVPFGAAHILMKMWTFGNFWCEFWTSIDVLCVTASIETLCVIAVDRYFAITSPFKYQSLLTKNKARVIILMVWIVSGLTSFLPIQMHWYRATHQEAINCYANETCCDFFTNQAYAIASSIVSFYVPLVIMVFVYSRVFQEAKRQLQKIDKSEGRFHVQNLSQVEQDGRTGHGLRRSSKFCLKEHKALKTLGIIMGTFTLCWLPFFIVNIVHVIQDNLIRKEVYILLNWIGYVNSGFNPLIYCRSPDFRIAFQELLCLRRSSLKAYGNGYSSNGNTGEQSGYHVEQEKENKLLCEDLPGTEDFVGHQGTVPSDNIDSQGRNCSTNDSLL

Compound: Nc1nc2ccc(Cl)cc2c2nc(-c3ccco3)nn12 [CGS15943]
- Ki [1]: 12.3 nM
- Ki [2]: 12.3 nM
- β2AR % Total binding at 10 μM [3]: 115.4 ± 5.0%
- effect on binding of BODIPY-TMR-CGP at the β2AR ([3]; secondary screen of LOPAC hits): no effect
- % Total CA200645 binding [4]: 30.0 ± 3.0%
- Literature values (A3AR) [5]: 8.18

Compound: O=C(Cc1ccccc1)Nc1nc2ccc(Cl)cc2c2nc(-c3ccco3)nn12 [MRS1220]
- Literature values (A1AR) ([6]; A1AR, ref Stoddart et al. ([2012])): 7.14

Compound: CC1=C(/C=C/C(C)=C/C=C/C(C)=C/C(=O)Nc2ccc(O)cc2)C(C)(C)CCC1 [Retinoic acid p-hydroxyanilide]
- Ki ([7]; 25 nM CA200645, mean ± SEM, n=3, read-out: A1AR pKi (selected LOPAC hits) (converted)): 912 nM
- Ki [2, 8]: 741 nM
- β2AR % Total binding at 10 μM [3]: 102.7 ± 5.1%
- % 25 nM CA200645 binding ([4]; % of control wells (1% DMSO and 25 nM CA200645), compounds at 10 µM, whole live cells expressing the A3AR, mean ± SD, three experiments in duplicate): 26.5 ± 2.0%

Compound: CN(C)S(=O)(=O)c1ccc2c(c1)/C(=C/c1cc3c([nH]1)CCCC3)C(=O)N2 [SU 6656]
- inhibition of CA200645 binding at the A1AR [7]: only inhibited binding at the highest concentration tested
- Ki [2, 8]: 676 nM
- β2AR % Total binding at 10 μM [3]: 128.4 ± 18.4%
- % 25 nM CA200645 binding [4]: 17.3 ± 1.8%

Compound: Nc1nc(NCCc2ccc(O)cc2)nc2nc(-c3ccco3)nn12 [ZM241385]
- Ki ([1]; CHO cells expressing A3AR, 5 nM AV039, PHERAstar HTS assay, mean ± SEM, read-out: pKi A3AR AV039 (converted)): 479 nM
- Ki ([2]; CHO cells expressing A3AR, 25 nM CA200645, PHERAstar HTS assay, mean ± SEM, read-out: pKi A3AR CA200645 (converted)): 234 nM
- Literature values (A3AR) [5]: 6.74

Compound: CA200645
- Kd ([6]; ref Stoddart et al., [2012], read-out: KD of fluorescent ligand at the A1AR): 11 nM
